Measurements: patent US20260014278A1, “HYBRID PEPTIDE DENDRIMER SYSTEMS AND EXTRAHEPATIC DELIVERY” (NUNTIUS THERAPEUTICS LIMITED, priority 2022, published 2026)

Test system: lung and spleen
Experiment: Luciferase mRNA expression in mouse tissues after intravenous administration (bioluminescence)
Assay type: in vivo, Balb/c mice
Conditions: 6 hours, DOTMA/DOPE w/w=23:1 to mRNA, dendrimers NP=0.6:1, FIG. 11
Description: All animal procedures were conducted following the Animal Research Reporting of In Vivo Experiments and approved by the UK Home Office for the conduct of regulated procedures under license. For the data underlying FIG. 11, Balb/c mice aged 4 weeks were purchased from Jackon's Laboratory and left to acclimate in the new housing environment for 1-week upon their arrival. All mice were weighed and warmed for 15 min at 37 C in a heating chamber. The formulations were delivered intravenously (5 mL/kg) via the tail vein using 30 G insulin syringes (BD biosciences).
All mice were imaged 6 hours post injection. BLI was performed using an IVIS Lumina II (Perkin Elmer) imaging system. Mice were administered D-luciferin (GoldBio) at a dose of 10 uL/g. Mice were anaesthetised in a chamber with 2.5% isoflurane and then placed on a heated imaging platform while being maintained on 2.5% isoflurane. For the data underlying FIG. 11, mice were imaged 10 min post administration of D-luciferin with an exposure time set at 45 sec to ensure the signal acquired was within an effective detection range (binning medium). Bioluminescence signal was quantified by measuring photon flux (photons/s) using the Living Image software (Perkin Elmer). […] The organs were placed in the centre of imaging platform (Lumina II system) and signal was measured using the acquisition settings detailed above. […]

(RHL)4(KRHL)2KGSC-NH2 [GSCG1,2-RHL]
delivery of luciferase mRNA cargo to lung and spleen (bioluminescence): further improved
